Laboratory results as given in BigSolDB 2.1.

O=c1c(-c2ccc(O)cc2)coc2cc(O)cc(O)c12
solubility (mole fraction)
Conditions | 288.2 K | 293.2 K | 298.2 K | 303.2 K | 308.2 K | 313.2 K | 318.2 K | 323.2 K | 328.2 K
in acetone | 0.00477 | 0.00526 | 0.00607 | 0.007 | 0.00754 | 0.00805 | 0.00856 | 0.00879 | 0.0089
in chloroform | 2.41e-06 | 2.82e-06 | 3.22e-06 | 3.6e-06 | 3.99e-06 | 4.36e-06 | 4.51e-06 | 4.7e-06 | 4.74e-06
in ethyl acetate | 0.00183 | 0.0022 | 0.00241 | 0.00273 | 0.00335 | 0.00367 | 0.00413 | 0.00471 | 0.00539
in methanol | 0.000935 | 0.00127 | 0.00145 | 0.00163 | 0.00192 | 0.00212 | 0.00266 | 0.00323 | 0.00372
in n-hexane | 6.96e-06 | 8.12e-06 | 9e-06 | 1.01e-05 | 1.09e-05 | 1.14e-05 | 1.24e-05 | 1.3e-05 | 1.41e-05
in water | 4.72e-08 | 6.95e-08 | 8.46e-08 | 1.05e-07 | 1.25e-07 | 1.67e-07 | 1.99e-07 | 2.7e-07 | 3.68e-07
